PMC11903690 (Scientific Reports, 2025)

Legend:
Experiment in all cases: microbe, parasite or virus in culture
Format in all cases: cell-based
[1] = system: SARS-CoV-2 alpha (B.1.1.7); settings: for Selectivity index: SARS-CoV-2α, HEK293TA cells; for EC50: Severe acute respiratory syndrome coronavirus 2
SARS-CoV-2gamma (P.1) = settings: for Selectivity index: SARS-CoV-2γ, HEK293TA cells; for EC50: Severe acute respiratory syndrome coronavirus 2
[2] = system: SARS-CoV-2 delta (B.1.617.2); settings: for Selectivity index: SARS-CoV-2δ, HEK293TA cells; for EC50: Severe acute respiratory syndrome coronavirus 2

Structure (SMILES) | Selectivity index [1] | EC50 [1] | Selectivity index (SARS-CoV-2gamma (P.1)) | EC50 (SARS-CoV-2gamma (P.1)) | Selectivity index [2] | EC50 [2]
O=C(CCCCCCCCc1ccc(O)c(O)c1)c1c(O)cccc1O [Compound 1, Malabaricone C] | 2.6 | 1900 nM | 3.6 | 1700 nM | 3.4 | 1900 nM
CC(C)C(=O)OC[C@H]1O[C@@H](n2ccc(NO)nc2=O)[C@H](O)[C@@H]1O [Molnupiravir] | 14.7 | 400 nM | 13 | 520 nM | 13 | 450 nM
CCC(CC)COC(=O)[C@H](C)N[P@](=O)(OC[C@H]1O[C@@](C#N)(c2ccc3c(N)ncnn23)[C@H](O)[C@@H]1O)Oc1ccccc1 [Remdesivir] | – | < 78 nM | – | < 78 nM | – | < 78 nM
